By AC50 is commonly meant the concentration at which the activity in the assay is half-maximal. A word on the solubility: it is how much of the substance goes into solution per volume.

In brackets after ≈: the same amount, converted by molar mass.

T1 sequence (P14618 whole entry): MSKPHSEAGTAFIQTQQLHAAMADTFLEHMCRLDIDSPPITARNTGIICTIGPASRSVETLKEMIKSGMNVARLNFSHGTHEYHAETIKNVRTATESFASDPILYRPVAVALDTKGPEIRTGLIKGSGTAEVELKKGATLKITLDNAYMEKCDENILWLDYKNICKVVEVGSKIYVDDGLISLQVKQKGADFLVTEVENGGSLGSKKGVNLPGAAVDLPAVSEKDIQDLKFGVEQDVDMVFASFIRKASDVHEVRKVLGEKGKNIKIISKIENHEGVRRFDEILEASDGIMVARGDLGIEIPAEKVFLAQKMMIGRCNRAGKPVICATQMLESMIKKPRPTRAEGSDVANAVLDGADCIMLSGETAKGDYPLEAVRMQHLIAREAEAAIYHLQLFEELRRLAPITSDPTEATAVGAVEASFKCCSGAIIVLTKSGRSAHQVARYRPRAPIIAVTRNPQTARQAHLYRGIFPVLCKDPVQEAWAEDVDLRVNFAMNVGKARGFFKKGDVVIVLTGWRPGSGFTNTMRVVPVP
T2 sequence (P52480 whole entry): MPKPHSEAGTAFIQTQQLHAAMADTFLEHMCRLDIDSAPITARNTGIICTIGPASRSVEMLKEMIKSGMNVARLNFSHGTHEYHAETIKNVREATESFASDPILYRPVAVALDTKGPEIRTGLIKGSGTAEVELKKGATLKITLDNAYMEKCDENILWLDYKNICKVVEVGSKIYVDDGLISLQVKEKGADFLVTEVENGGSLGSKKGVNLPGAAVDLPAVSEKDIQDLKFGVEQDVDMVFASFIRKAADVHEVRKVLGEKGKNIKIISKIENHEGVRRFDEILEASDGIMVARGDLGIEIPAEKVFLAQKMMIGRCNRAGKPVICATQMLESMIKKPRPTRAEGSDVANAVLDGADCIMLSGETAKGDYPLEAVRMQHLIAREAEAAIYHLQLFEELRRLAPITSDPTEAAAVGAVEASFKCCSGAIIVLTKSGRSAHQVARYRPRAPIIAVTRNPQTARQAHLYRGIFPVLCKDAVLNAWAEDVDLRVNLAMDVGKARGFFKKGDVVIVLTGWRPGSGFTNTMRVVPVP

The first data set concerns the target T1, human recombinant PKM2 (Homo sapiens, UniProt P14618).
T1 construct: purchased Sigma SAE0021
Kind of data set: Pyruvate kinase enzyme-coupled (LDH/NADH) assay with recombinant PKM2. It is filed as biochemical. Conditions: recombinant human PKM2, n = 3, best-fit value ± std. error. The method, then:
Recombinant Enzyme. An enzyme-coupled assay that measures the depletion of NADH via absorbance at 340 nm and uses lactate dehydrogenase (LDH) was employed to determine the activity of pyruvate kinase (PK). To determine the AC50 (concentration of activator necessary to achieve half-maximal activation) of the different small molecules with PKM2, assays were conducted in a 96-well format using 200 μL/well assay volume with 10 nM human recombinant PKM2 (Sigma, St. Louis, MO, USA, Cat No. SAE0021) or PKM1 (Sigma, […], Cat No. SRP0415), differing concentrations of activator, 0.5 mM PEP, 1 mM ADP, 0.2 mM NADH, and 8 U of LDH in a buffer of 50 mM Tris-HCl (pH 7.4), 100 mM KCl, and 5 mM MgCl2 as previously described. A SPECTROstar Omega plate reader (BMG LABTECH Inc., Cary, NC, USA) monitored absorbance at 340 nm. The MARS software suite was utilized to determine initial velocities. Data were normalized to DMSO (dimethyl sulfoxide)-treated enzyme activity, as previously described.
For the compound `Cn1c2cc(CNCCO)c(F)cc2c2cnn(Cc3ccccc3F)c(=O)c21` [Compound 20], the concentration at half-maximal activity (AC50) came out at 0.062 ± 0.011 µM.
As to `Cc1cccc(Cn2ncc3c4cc(F)c(CN5CCCC5)cc4n(C)c3c2=O)n1` [Compound 18], the half-maximal activity concentration (AC50) was 0.064 ± 0.004 µM.
For the compound `Cc1cccc(Cn2ncc3c4cc(F)c(CN5CCOCC5)cc4n(C)c3c2=O)n1` [Compound 16], the AC50 worked out at 0.065 ± 0.008 µM.
The same measure, in the same setting: the figure for `Cn1c2cc([S+](C)[O-])ccc2c2cnn(Cc3ccccc3)c(=O)c21` (stereo not shown) [Compound 3] is 0.047 ± 0.01 µM.
As for `Cc1ccc2c3cnn(Cc4cccc(N)c4)c(=O)c3n(C)c2c1` [Compound 5], the half-maximal activity concentration (AC50) was found to be 0.061 ± 0.012 µM.

Still in this data set, the particulars now being: recombinant human PKM2, n = 3, normalized to DMSO-treated enzyme; read-out: Recombinant PKM2 Max Activation.
For `Cn1c2cc([S+](C)[O-])sc2c2cnn(Cc3cccc(N)c3)c(=O)c21` (stereo not shown) [ML-265, reference compound], the Emax is 292 ± 21%.
Same read-out and setting: the figure for `Cn1c2cc(CNCCO)c(F)cc2c2cnn(Cc3ccccc3F)c(=O)c21` [Compound 20] is 239 ± 12%; for `Cc1cccc(Cn2ncc3c4cc(F)c(CN5CCCC5)cc4n(C)c3c2=O)n1` [Compound 18] it is 245 ± 5%; for `Cc1cccc(Cn2ncc3c4cc(F)c(CN5CCOCC5)cc4n(C)c3c2=O)n1` [Compound 16] it is 224 ± 8%.
Same read-out and setting: the figure for `Cn1c2cc([S+](C)[O-])ccc2c2cnn(Cc3ccccc3)c(=O)c21` (stereo not shown) [Compound 3] is 279 ± 16%.
For `Cc1ccc2c3cnn(Cc4cccc(N)c4)c(=O)c3n(C)c2c1` [Compound 5], the Emax was 249 ± 14%.

Another data set has as its target T2, pyruvate kinase (PK) activity in 661W cells (Mus musculus, UniProt P52480).
T2 construct: endogenous in cells; host or cells: 661W photoreceptor-like cells
Kind of data set: PK activity in 661W cell lysates after 2 h incubation with activator. It is filed as cell-based. Conditions: n = 3. The method, then:
The potency and efficacy of each compound, 1 through 5, was assessed with recombinant human PKM2 using an enzyme-coupled assay that uses lactate dehydrogenase and measures the reduction in NADH via absorbance at 340 nm. […] To assess the ability of this pyridazinoindolone series of compounds to cross cellular membranes and increase PK activity, we utilized 661W cells, which are immortalized photoreceptor-like cells that express cone markers.
Cell culture. Next, 661W cells were incubated with either DMSO or different concentrations of small-molecule PKM2 activator for 2 h, lysed and homogenized in RIPA Lysis and Extraction Buffer (Thermo Fisher, Waltham, MA, USA, Cat No. 89900) with protease inhibitors (Complete-Mini, Roche Diagnostics, Indianapolis, IN, USA), and centrifuged at 10,000 rpm for 10 min to remove cellular debris. The supernatant (4–8 μL) was then used to assess the pyruvate kinase activity as described above. The total protein content was determined using the Pierce BCA protein assay kit (Thermo Fisher, Waltham, MA, USA, Cat No. 23225) with the Pierce™ Bovine Serum Albumin Standard Pre-Diluted Set (Thermo Fisher, Waltham, MA, USA, Cat No. 23208) and used to normalize activity as described previously.
For the compound `Cn1c2cc([S+](C)[O-])sc2c2cnn(Cc3cccc(N)c3)c(=O)c21` (stereo not shown) [ML-265, reference compound], half-maximal activity (AC50) was put at 0.108 ± 0.032 µM.
Still for that read-out and setting: in the case of `Cn1c2cc(CNCCO)c(F)cc2c2cnn(Cc3ccccc3F)c(=O)c21` [Compound 20] it was 0.093 ± 0.029 µM; in that of `Cc1cccc(Cn2ncc3c4cc(F)c(CN5CCCC5)cc4n(C)c3c2=O)n1` [Compound 18], 0.106 ± 0.027 µM.
Still for that read-out and setting: in the case of `Cc1cccc(Cn2ncc3c4cc(F)c(CN5CCOCC5)cc4n(C)c3c2=O)n1` [Compound 16] it was 0.162 ± 0.046 µM.
Still for that read-out and setting: the figure for `Cn1c2cc([S+](C)[O-])ccc2c2cnn(Cc3ccccc3)c(=O)c21` (stereo not shown) [Compound 3] is 0.104 ± 0.032 µM.
The compound `Cc1ccc2c3cnn(Cc4cccc(N)c4)c(=O)c3n(C)c2c1` [Compound 5] registered an AC50 of 0.132 ± 0.047 µM.

The same data set, now with this note: n = 3, read-out: 661W Cells Max Activation.
`Cn1c2cc([S+](C)[O-])sc2c2cnn(Cc3cccc(N)c3)c(=O)c21` (stereo not shown) [ML-265, reference compound]: the Emax was 370 ± 21%.
On the same count and under the same terms, in the case of `Cn1c2cc(CNCCO)c(F)cc2c2cnn(Cc3ccccc3F)c(=O)c21` [Compound 20] it was 288 ± 17%; in that of `Cc1cccc(Cn2ncc3c4cc(F)c(CN5CCCC5)cc4n(C)c3c2=O)n1` [Compound 18], 257 ± 12%.
Still for that read-out and setting: in the case of `Cc1cccc(Cn2ncc3c4cc(F)c(CN5CCOCC5)cc4n(C)c3c2=O)n1` [Compound 16] it was 268 ± 15%.
Same read-out and setting: in the case of `Cn1c2cc([S+](C)[O-])ccc2c2cnn(Cc3ccccc3)c(=O)c21` (stereo not shown) [Compound 3] it was 280 ± 17%; in that of `Cc1ccc2c3cnn(Cc4cccc(N)c4)c(=O)c3n(C)c2c1` [Compound 5], 236 ± 16%.

Another data set deals with T3, pyruvate kinase (PK) activity in rat retina (Rattus norvegicus, UniProt P11980).
T3 construct: the retina from each rat eye was dissected from the RPE-choroid, homogenized, and lysed; from tissue; host or cells: retina of adult Brown-Norway rats
T3 sequence (P11980 1-531 isoform P11980-2): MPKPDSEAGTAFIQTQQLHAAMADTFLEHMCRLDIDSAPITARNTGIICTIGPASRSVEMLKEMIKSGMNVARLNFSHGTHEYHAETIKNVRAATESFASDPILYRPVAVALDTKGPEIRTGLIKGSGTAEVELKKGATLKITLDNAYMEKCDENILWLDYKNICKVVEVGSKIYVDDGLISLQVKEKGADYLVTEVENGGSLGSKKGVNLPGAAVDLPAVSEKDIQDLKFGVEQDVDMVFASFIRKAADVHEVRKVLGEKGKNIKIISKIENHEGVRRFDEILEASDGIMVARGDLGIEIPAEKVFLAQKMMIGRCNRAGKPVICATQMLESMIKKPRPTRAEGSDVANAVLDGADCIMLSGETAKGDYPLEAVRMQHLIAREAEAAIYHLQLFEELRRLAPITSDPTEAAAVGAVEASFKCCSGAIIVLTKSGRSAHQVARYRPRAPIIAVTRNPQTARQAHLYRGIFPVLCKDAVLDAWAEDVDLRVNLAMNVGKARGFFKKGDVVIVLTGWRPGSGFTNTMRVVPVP
The experiment in a line: PK activity in rat retina after intravitreal injection. It is filed as in vivo. The conditions noted are these: final vitreous concentration 1 μM, intravitreal injection in rats, 4 h (Figure 6a). The method, then: The intravitreal injection of medications has revolutionized how numerous retinal diseases are treated and are ever-increasing in ophthalmic clinical practice. Therefore, to assess the ability of these small molecules to activate PK in vivo in the rat retina, we utilized this well-accepted drug delivery method. Two microliters of each respective compound at 850 μM or DMSO were intravitreally injected into rat eyes. The vitreous volume of the rat eye was assumed to be 15 μL, giving a final intravitreal concentration of approximately 100 μM for each compound after injection. Retinas were harvested four hours after injection, lysed, and assayed for PK activity as previously described. The eyes treated with DMSO served as the control upon which PK activation was based.
Two microliters of each respective compound at 8.5 μM (final vitreous concentration of 1 μM) or DMSO was intravitreally injected into rat eyes, and the PK activity was assessed four hours later.
Animals. Intravitreal injections of various small-molecule PKM2 activators or vehicle (DMSO) were performed in Brown-Norway adult rats. The rats were anesthetized with ketamine (90 mg/mL) and xylazine (10 mg/mL) and their pupils dilated with topical phenylephrine (2.5%) and tropicamide (1%) as described previously. A sclerotomy was created with a 25-gauge microvitreoretinal blade (Walcott Rx Products, Ocean View, NJ, USA) just posterior to the limbus. A blunt 35-gauge cannula was inserted through this sclerotomy into the vitreous cavity to deliver 2 μL of different concentrations of small-molecule activator or DMSO. This injection volume produces minimal reflux with adequate reproducibility. Fifteen microliters of vitreous volume was assumed in rats to calculate the intravitreal concentrations of the compound after injection. As we have previously described, left eyes were treated with small-molecular activator, while right eyes were treated with DMSO, which served as the control upon which pyruvate kinase activation was based. Four hours later, the retina from each rat eye was dissected from the RPE-choroid, homogenized, and lysed in RIPA Lysis and Extraction Buffer with protease inhibitors. The pyruvate kinase (PK) activity assay, as described above, was performed using 4 to 8 microliters of rat retinal lysate, similar to what we and others have previously described. Analogous to the cell culture assays, the total protein of the lysate was used to normalize pyruvate kinase activity.
As to `Cc1cccc(Cn2ncc3c4cc(F)c(CN5CCCC5)cc4n(C)c3c2=O)n1` [Compound 18], the “PK activity increase, less than that observed with ML-265” value is recorded as 20–30%.

Still in this data set, the particulars now being: increasing concentrations, intravitreal injection in rats, retina 4 h; read-out: in vivo AC50.
For `Cn1c2cc([S+](C)[O-])sc2c2cnn(Cc3cccc(N)c3)c(=O)c21` (stereo not shown) [ML-265, reference compound], the AC50 was 0.866 ± 0.176 µM.

The data set is the same for the next values; noted with them: rat; increasing concentrations, intravitreal injection in rats, retina 4 h, normalized to DMSO; read-out: in vivo PK activity (maximum activation).
Take `Cn1c2cc([S+](C)[O-])sc2c2cnn(Cc3cccc(N)c3)c(=O)c21` (stereo not shown) [ML-265, reference compound]: the Emax came out at 202 ± 8%.

Tested on in another data set: not listed separately
Kind of data set: Aqueous solubility (Eurofins Panlabs, HPLC-UV/Vis). Conditions: aqueous buffer, kinetic from dmso stock; PBS, pH 7.4, 24 h, room temperature (Table 1). It is filed as physicochemical. The procedure:
(§1) In brief, each compound was tested at a concentration of 200 μM in PBS, pH 7.4, and room temperature. […] The area of the principal peak in a calibration standard for each compound (200 μM) in organic solvent (60/40 v/v% methanol: water) was compared to the area of the corresponding peak in the PBS sample [42]. Compounds 16–21 underwent solubility testing at Analiza (Cleveland, OH, USA), a contract research organization. Five hundred microliters of PBS, pH 7.4 was added to each amount of compound provided. The samples were vortexed briefly and then placed on a rotary shaker at 200 RPM for 24 h at ambient temperature. Thereafter, the samples were vacuum filtered through a 0.45-micron membrane, and the filtrates were injected into a nitrogen detector for quantification. The nitrogen detector was calibrated using standards, and the filtrates were quantitated based on the calibration curve.
For the compound `Cn1c2cc([S+](C)[O-])ccc2c2cnn(Cc3ccccc3)c(=O)c21` (stereo not shown) [Compound 3], the solubility at 24 h is 12.1 µM (≈ 4.25 µg/mL). This counts as double-digit micromolar.
On the same count and under the same terms, the figure for `Cc1ccc2c3cnn(Cc4cccc(N)c4)c(=O)c3n(C)c2c1` [Compound 5] is 12.7 µM (≈ 4.04 µg/mL).

Tested on in a further data set: not listed separately
The experiment in a line: Aqueous solubility (Analiza, nitrogen detector). Conditions: aqueous buffer, thermodynamic from solid; PBS, pH 7.4, 24 h, ambient temperature (Table 3). It is filed as physicochemical. The method, then: as §1
Regarding `Cn1c2cc(CNCCO)c(F)cc2c2cnn(Cc3ccccc3F)c(=O)c21` [Compound 20], the solubility at 24 h was 462 µM (≈ 184 µg/mL).
Turning to `Cc1cccc(Cn2ncc3c4cc(F)c(CN5CCCC5)cc4n(C)c3c2=O)n1` [Compound 18], the solubility at 24 h stood at 858 µM (≈ 348 µg/mL). Compared with the last compound, the solubility at 24 h is about 1.9-fold higher.
On the same count and under the same terms, the figure for `Cc1cccc(Cn2ncc3c4cc(F)c(CN5CCOCC5)cc4n(C)c3c2=O)n1` [Compound 16] is 397 µM (≈ 167 µg/mL).

These data come from publication PMC10222839, “Development of Novel Small-Molecule Activators of Pyruvate Kinase Muscle Isozyme 2, PKM2, to Reduce Photoreceptor Apoptosis” (Pharmaceuticals, 2023).
